From ChEMBL document CHEMBL3421611, “New quinolone- and 1,8-naphthyridine-3-carboxamides as selective CB2 receptor agonists with anticancer and immuno-modulatory activity” (Eur J Med Chem, 2015) come the findings set out here.

The target in assay [1] is Cannabinoid receptor 1 (Homo sapiens, UniProt P21554). Briefly: Displacement of [3H]-CP-55940 from recombinant human CB1 receptor overexpressed in HEK293 cell membranes after 90 mins. Background: Displacement assays read how much labelled ligand stays bound in the presence of the test substance.
The target in assay [2] is T1, Cannabinoid receptor 2 (Homo sapiens, UniProt P34972). Briefly: Displacement of [3H]-CP-55940 from recombinant human CB2 receptor overexpressed in HEK293 cell membranes after 90 mins.
The species named for assay [3] is Homo sapiens. Briefly: Selectivity index, ratio of Ki for recombinant human CB1 receptor to Ki for recombinant human CB2 receptor.
Assay [4] concerns the target T1, Cannabinoid receptor 2. Briefly: Agonist activity at human CB2 receptor transfected in CHO cell membranes after 90 mins by [35S]-GTPgammaS assay. The assay is classed as functional.
The subject of assay [5] is PBMC. Briefly: Antiinflammatory activity in human myelin basic protein activated PBMC isolated from healthy human assessed as inhibition of phosphorylated Akt expression at 10 uM after 6 days by Western blot analysis. The assay is classed as functional, cell-based. In general terms: Immunoblotting shows a protein as a band on a membrane.
Assay [6] has as its system PBMC. Briefly: Antiinflammatory activity in human myelin basic protein activated PBMC isolated from healthy human assessed as inhibition of phosphorylated Cox-2 expression at 10 uM after 6 days by Western blot analysis. The assay is classed as functional, cell-based.
Assay [7] has as its target Cannabinoid receptor 1 (Rattus norvegicus) (UniProt P20272). Briefly: Agonist activity at CB1 receptor in rat cerebellar membranes at 3 uM after 90 mins by [35S]-GTPgammaS assay in presence of CB1 antagonist AM251. The assay is classed as functional, cell membranes. Particulars: Cerebellum, Membrane. In general terms: GTPγS resists hydrolysis and so accumulates on activated G proteins.

The subject of assay [8] is CHO. Briefly: Effect on mock-transfected CHO cell membranes after 90 mins by [35S]-GTPgammaS assay. Type of assay: functional. Particulars: Cricetulus griseus.
The target in assay [9] is Cannabinoid receptor 1 (Rattus norvegicus, UniProt P20272). Briefly: Agonist activity at CB1 receptor in rat cerebellar membranes after 90 mins by [35S]-GTPgammaS assay. The assay is classed as functional, cell membranes, Cerebellum, Membrane.
For assay [10], the target named is Cannabinoid receptor 1 (Rattus norvegicus) (UniProt P20272). Briefly: Agonist activity at CB1 receptor in rat cerebellar membranes after 90 mins by [35S]-GTPgammaS assay relative to 2-AG. The assay is classed as functional, cell membranes. The settings on record: Cerebellum, Membrane.
The subject of assay [11] is LNCaP. Briefly: Cytotoxicity against human LNCAP cells expressing CB2 receptor assessed as decrease in cell viability after 72 hrs by neutral red uptake and accumulation assay.
Assay [12] deals with LNCaP. Briefly: Cytotoxicity against human LNCAP cells expressing CB2 receptor assessed as decrease in cell viability at 5 uM after 72 hrs by neutral red uptake and accumulation assay in presence of CB2 receptor antagonist MC21 relative to control. The assay is classed as functional, cell-based.
Assay [13] concerns PBMC. Briefly: Immunomodulatory activity in human myelin basic protein activated PBMC isolated from healthy human assessed as viable cells at 10 uM after 6 days by trypan blue staining-based haemocytometric analysis. The assay is classed as functional. The settings on record: 144 h, read-out: Activity.
In assay [14] the test system is PBMC. Briefly: Immunomodulatory activity in human myelin basic protein activated PBMC isolated from multiple sclerosis patient assessed as decrease in cell proliferation at 10 uM after 6 days by trypan blue staining-based haemocytometric analysis relative to control. Type of assay: functional.
Assay [15] concerns PBMC. Briefly: Immunomodulatory activity in human myelin basic protein activated PBMC isolated from healthy human assessed as inhibition of CD54 expression at 10 uM after 6 days by flow cytometric analysis. The assay is classed as functional, cell-based.
For assay [16], the system named is PBMC. Briefly: Immunomodulatory activity in human myelin basic protein activated PBMC isolated from healthy human assessed as inhibition of CD69 expression at 10 uM after 6 days by flow cytometric analysis. The assay is classed as functional, cell-based.
The test system of assay [17] is PBMC. Briefly: Immunomodulatory activity in human myelin basic protein activated PBMC isolated from healthy human assessed as inhibition of CD25 expression at 10 uM after 6 days by flow cytometric analysis. Type of assay: functional, cell-based.
Assay [18] relates to PBMC. Briefly: Immunomodulatory activity in human myelin basic protein activated PBMC isolated from healthy human assessed as inhibition of CD62 expression at 10 uM after 6 days by flow cytometric analysis. The assay is classed as functional, cell-based.
Assay [19] concerns PBMC. Briefly: Immunomodulatory activity in human myelin basic protein activated PBMC isolated from healthy human assessed as inhibition of CD49d expression at 10 uM after 6 days by flow cytometric analysis. The assay is classed as functional, cell-based.
Assay [20] concerns PBMC. Briefly: Antiinflammatory activity in human myelin basic protein activated PBMC isolated from healthy human assessed as inhibition of phosphorylated Cox-2 expression after 6 days by Western blot analysis. The assay is classed as functional, cell-based.
For assay [21], the system named is PBMC. Briefly: Antiinflammatory activity in human myelin basic protein activated PBMC isolated from multiple sclerosis patient assessed as inhibition of phosphorylated Akt expression at 10 uM after 6 days by Western blot analysis. Type of assay: functional, cell-based.
Assay [22] has as its system PBMC. Briefly: Antiinflammatory activity in human myelin basic protein activated PBMC isolated from multiple sclerosis patient assessed as inhibition of phosphorylated Cox-2 expression at 10 uM after 6 days by Western blot analysis. Type of assay: functional, cell-based.
The target in assay [23] is Cannabinoid receptor 1 (Rattus norvegicus) (UniProt P20272). Briefly: Modulation of CB1 receptor-mediated G protein activity in rat cerebellar membranes at < 10 uM after 90 mins by [35S]-GTPgammaS assay. Type of assay: functional, cell membranes. Particulars: Cerebellum, Membrane.
In assay [24] the test system is LNCaP. Briefly: Cytotoxicity against human LNCAP cells expressing CB2 receptor assessed as decrease in cell viability at 2 uM after 72 hrs by neutral red uptake and accumulation assay in presence of CB2 receptor antagonist MC21 relative to control. The assay is classed as functional, cell-based.
The test system of assay [25] is PBMC. Briefly: Immunomodulatory activity in human myelin basic protein activated PBMC isolated from healthy human assessed as decrease in cell proliferation after 6 days by trypan blue staining-based haemocytometric analysis relative to control. The assay is classed as functional.
Assay [26] concerns PBMC. Briefly: Immunomodulatory activity in human myelin basic protein activated PBMC isolated from multiple sclerosis patient assessed as decrease in cell proliferation after 6 days by trypan blue staining-based haemocytometric analysis relative to control. The assay is classed as functional.
Assay [27] has as its system PBMC. Briefly: Immunomodulatory activity in human myelin basic protein activated PBMC isolated from healthy human assessed as inhibition of CD54 expression after 6 days by flow cytometric analysis. Type of assay: functional, cell-based.
Assay [28] relates to PBMC. Briefly: Immunomodulatory activity in human myelin basic protein activated PBMC isolated from healthy human assessed as inhibition of CD69 expression after 6 days by flow cytometric analysis. The assay is classed as functional, cell-based.
Assay [29] relates to PBMC. Briefly: Immunomodulatory activity in human myelin basic protein activated PBMC isolated from healthy human assessed as inhibition of CD25 expression after 6 days by flow cytometric analysis. The assay is classed as functional, cell-based.
The subject of assay [30] is PBMC. Briefly: Immunomodulatory activity in human myelin basic protein activated PBMC isolated from healthy human assessed as inhibition of CD62 expression after 6 days by flow cytometric analysis. The assay is classed as functional, cell-based.
In assay [31] the test system is PBMC. Briefly: Immunomodulatory activity in human myelin basic protein activated PBMC isolated from healthy human assessed as inhibition of CD49d expression after 6 days by flow cytometric analysis. Type of assay: functional, cell-based.
The subject of assay [32] is PBMC. Briefly: Immunomodulatory activity in human myelin basic protein activated PBMC isolated from multiple sclerosis patient assessed as inhibition of CD54 expression at 10 uM after 6 days by flow cytometric analysis. Type of assay: functional, cell-based.
The test system of assay [33] is PBMC. Briefly: Immunomodulatory activity in human myelin basic protein activated PBMC isolated from multiple sclerosis patient assessed as inhibition of CD25 expression at 10 uM after 6 days by flow cytometric analysis. The assay is classed as functional, cell-based.
Assay [34] deals with PBMC. Briefly: Immunomodulatory activity in human myelin basic protein activated PBMC isolated from multiple sclerosis patient assessed as inhibition of CD49d expression at 10 uM after 6 days by flow cytometric analysis. The assay is classed as functional, cell-based.
The test system of assay [35] is PBMC. Briefly: Antiinflammatory activity in human myelin basic protein activated PBMC isolated from healthy human assessed as inhibition of phosphorylated Akt expression after 6 days by Western blot analysis. Type of assay: functional, cell-based.

Active and inactive are the calls of the source. No cut-off for these calls is given here. A value given as a limit tells only on which side of the number the result lay.

Sequence of Cannabinoid receptor 1 (Homo sapiens, UniProt P21554) (P21554 whole entry): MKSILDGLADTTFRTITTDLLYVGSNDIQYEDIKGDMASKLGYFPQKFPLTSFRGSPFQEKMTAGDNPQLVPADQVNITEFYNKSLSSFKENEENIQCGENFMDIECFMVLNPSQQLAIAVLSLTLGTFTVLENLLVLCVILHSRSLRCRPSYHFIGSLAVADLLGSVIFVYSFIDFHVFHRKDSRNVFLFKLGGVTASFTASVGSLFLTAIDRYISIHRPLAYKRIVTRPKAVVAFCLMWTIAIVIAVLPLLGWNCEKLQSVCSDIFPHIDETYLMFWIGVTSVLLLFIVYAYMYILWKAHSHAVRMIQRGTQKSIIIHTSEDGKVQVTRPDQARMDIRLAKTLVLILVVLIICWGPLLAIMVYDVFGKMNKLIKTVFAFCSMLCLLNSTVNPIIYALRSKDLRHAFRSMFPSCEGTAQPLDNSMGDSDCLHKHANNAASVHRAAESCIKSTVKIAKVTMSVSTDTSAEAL
Sequence of Cannabinoid receptor 1 (Rattus norvegicus) (P20272 whole entry): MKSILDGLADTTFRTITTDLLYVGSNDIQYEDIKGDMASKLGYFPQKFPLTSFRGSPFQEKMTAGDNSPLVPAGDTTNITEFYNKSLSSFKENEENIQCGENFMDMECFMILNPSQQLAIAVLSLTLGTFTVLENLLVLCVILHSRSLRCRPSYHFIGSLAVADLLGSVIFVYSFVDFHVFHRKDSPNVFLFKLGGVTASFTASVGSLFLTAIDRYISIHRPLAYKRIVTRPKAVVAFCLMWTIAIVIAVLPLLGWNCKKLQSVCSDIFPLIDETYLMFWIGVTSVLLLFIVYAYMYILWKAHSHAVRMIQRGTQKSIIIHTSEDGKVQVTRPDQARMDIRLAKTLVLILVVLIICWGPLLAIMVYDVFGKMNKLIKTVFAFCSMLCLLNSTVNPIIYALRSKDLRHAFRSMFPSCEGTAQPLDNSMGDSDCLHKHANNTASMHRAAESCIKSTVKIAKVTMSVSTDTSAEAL
T1 sequence (P34972 whole entry): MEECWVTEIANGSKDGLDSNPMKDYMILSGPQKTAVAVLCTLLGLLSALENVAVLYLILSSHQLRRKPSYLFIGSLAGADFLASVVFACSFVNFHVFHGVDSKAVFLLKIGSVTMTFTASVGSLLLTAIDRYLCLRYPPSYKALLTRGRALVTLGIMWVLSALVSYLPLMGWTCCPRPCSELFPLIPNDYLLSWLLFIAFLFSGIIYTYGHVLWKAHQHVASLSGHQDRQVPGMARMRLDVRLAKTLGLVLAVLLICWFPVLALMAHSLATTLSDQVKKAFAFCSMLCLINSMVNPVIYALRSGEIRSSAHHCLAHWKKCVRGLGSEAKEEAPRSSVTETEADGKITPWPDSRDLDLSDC
Sequence of Cannabinoid receptor 1 (Rattus norvegicus, UniProt P20272) (P20272 whole entry): as the sequence (P20272 whole entry) above

With `CCCCn1c(=O)c(C(=O)NC2CCC(C)CC2)cc2ccccc21` (configuration not stated), the Ki (usually the dissociation constant of the complex between target and ligand, obtained from inhibition or displacement) in assay [1] stood at 0.551 µM; in assay [2], 0.0198 µM. Moreover, in assay [3], the Ratio Ki stood at 28.
In the case of `CCCCCCC(C)(C)c1cc(O)c2c(c1)OC(C)(C)[C@@H]1CC=C(CO)C[C@@H]21`, the Emax (usually the size of the effect at its maximum, as opposed to the concentration needed) in assay [4] came to 290%.
Regarding `CCCn1c(=O)c(C(=O)NC2CCC(C)CC2)cc2ccccc21` (configuration not stated), the Ki in assay [1] turned out to be 2.61 µM; in [2], 0.0254 µM. In assay [3], the Ratio Ki was 102.
As for `CCCCCn1c(=O)c(C(=O)NC2CCC(C)CC2)cc2ccccc21` (configuration not stated), the inhibition entry in [5], in [6], in assay [16] and in assay [17] was “Active” each time. Further, the Ki was determined as 0.227 µM in [1] and 0.0015 µM in assay [2]. Also, the EC50 – broadly, the concentration that produces a half-maximal response – in assay [4] is 0.002 µM; in assay [9] it was 2.51 µM. For the same molecule, the values for the Emax in [4] and in assay [10] were 280% and 230%, respectively. The result in [7], in assay [8] and in assay [12] was inactive. Further, the IC50 (in general, the concentration that gives 50% inhibition) in assay [11] is 3.9 µM. Also, the viability at 10 µM in assay [13] is 71.5%. In [14], the outcome was Active. Further, the inhibition result in [15], in assay [18] and in assay [19] was “inactive” throughout.
For the molecule `CCCC(C)(C)c1ccc2c(c1)OC(C)(C)[C@@H]1CC=C(C)C[C@@H]21`, in assay [11], the IC50 was determined as 11.7 µM.
With `CC1CCC(NC(=O)c2c(O)c3cccnc3n(CCN3CCOCC3)c2=O)CC1` (configuration not stated), the Ki was 0.63 µM in [1] and 0.00744 µM in assay [2]. Moreover, the Ratio Ki in assay [3] is 85.
Regarding `CC1CCC(NC(=O)c2cc3ccccc3n(CCN3CCOCC3)c2=O)CC1` (configuration not stated), the Ki in assay [1] was 0.8 µM; in assay [2] it was 0.0042 µM. Further, the Ratio Ki in [3] was found to be 190.
The corresponding values for `CC1CCC(NC(=O)c2c(O)c3cccnc3n(CCCO)c2=O)CC1` (configuration not stated) are more than 10 µM, 0.215 µM and more than 4.6.
Taken in the same sequence, the figures for `CC1CCC(NC(=O)c2cc3ccccc3n(Cc3ccc(F)cc3)c2=O)CC1` (configuration not stated) were 0.0194 µM, 0.00075 µM and 27.7.
Regarding `CC1CCC(NC(=O)c2c(O)c3cccnc3n(Cc3ccc(F)cc3)c2=O)CC1` (configuration not stated), the inhibition entry in assay [20], in assay [27], in assay [28], in assay [29], in [30] and in [31] was “Dose-dependent effect” each time. The inhibition result in [35] is “Dose-dependent effect”. The inhibition result in assay [21], in [22], in [32], in assay [33] and in [34] was “Active” each time. The inhibition constant (Ki) in assay [1] amounted to 0.139 µM; in [2], 0.00075 µM. The molecule further gave an EC50 in assay [4] of 0.00316 µM. In assay [4], this molecule yielded an Emax of 216%. Further, the outcome in assay [8], in [23] and in assay [24] was inactive. In addition, in assay [11], the IC50 stood at 2.08 µM. The Activity entry in assay [25] and in assay [26] was “Dose-dependent effect” each time.
On to `CCCCn1c(=O)c(C(=O)NC2CCC(C)CC2)c(O)c2cccnc21` (configuration not stated), for which the values for the Ki in assay [1] and in assay [2] were 0.701 µM and 0.0112 µM, respectively. Moreover, the Ratio Ki in assay [3] amounted to 62.
The corresponding values for `CC1CCC(NC(=O)c2cc3ccccc3n(CCCO)c2=O)CC1` (configuration not stated) are 3.76 µM, 0.036 µM and 104.
